Experimental data published in patent US3997506A (priority 1974, dated 1976).
Several values for one entry are separate records, joined by “and”; a condition that tells them apart may be missing. Identical values can stand only once. Like-named read-outs stand apart in the source and are kept apart here.

What was measured:
[1] = tested on: leucocytes from rats; settings: individual rat, 2 mg/kg oral
Method: (§1) These rats had been kept fasting from the evening before.
(§2) During this experimentation a counting of the leucocytes as well as a leucocytic distribution were made before administration and 6 hours after administration of the substances. Moreover as a cytoxicity index, a measurement of the viability of leucocytes obtained 6 hours after administration was carried out by means of the staining test with Trypan blue.

[2] = tested on: leucocytes from rats; settings: 6 hours after administration, 2 mg/kg oral
Method: as §1, §2

[3] = tested on: human leucocytes
Method: Contrary to the previous experiment in which different volumes of a solution of a given concentration have been added, in this experiment the various concentrations were prepared through dilution of a concentrated solution in order to add a same volume of methanol to each culture.

[4] = tested on: oedema produced by crystals of urate in the hind paw of the rat; assay type: in vivo, Sprague Dawely female rats
Method: The anti-gout activity has also been studied "in vivo" with the rat by investigating the inhibition of oedema induced in the hind paw through local injection of sodium urate.
8 g of uric acid (puriss Fluka A.G. Buchs S.G.) were added to 1,600 ml of boiling water and the pH of the solution was adjusted to 7.4 with 20 % of sodium hydroxyde NaOH. The solution was heated up to 95° C and allowed to cool down to the room temperature of the laboratory while being slightly stirred for 7 to 8 hours. The crystals of sodium urate were recovered through filtration on a Buchner filter and air-dried. The formation of crystals was confirmed through microscopic examination.
Sprague Dawely female rats having an average weight of 200 g were used for this investigation.
The oedema was produced through injection into the plantar arch of the left hind foot or leg of 0.1 ml of a suspension of crystals of sodium urate in a physiological salt solution (100 mg/ml). An equal volume of saline solution was injected into the right foot or leg as a control.
Colchicine and the derivative in ethanolic solution were injected through the subcutaneous way.
Three injections with the same dose were carried out 0.2 and 4 hours after the injection of crystals of urate. The volume injected ranged from 3.5 to 6 ml/kg each time. The reference rats also received three injections of a solution containing the same concentration in ethanol.
Six hours after the injection of the crystals of urate, the rats were killed through decapitation, the hind legs were amputated at the ankle and weighed.

[5] = in vitro; assay type: cell-based, human; settings: human, leucocytes, read-out: % of dead cells
Method: The cytotoxicity has been investigated on human leucocytes by means of the viability test with Trypan blue.
a. In a first experimentation cultures of leucocytes of a voluntary […] were prepared and caused to undergo incubation with phytohemagglutinin (PHA) and with different concentrations of colchicine or of its derivative (C1 = 2.5 μg/ml of culture, C3 = 10 μg/ml, C5 = 30 μg/ml, C6 = 50 μg/ml). Leucocytes only containing PHA served as controls.
After 3, 42, 68 and 72 hours of incubation a sample of each culture was contacted by a drop of Trypan blue and laid on a slide of a microscope. Then took place the counting of the dead cells (those with assumed an […] colour) and of all the cells present on the slide in order to obtain the ratio of the number of dead cells to the total number of cells. The results expressed as a rate in per cent are shown in the accompanying table 8.
b. After the experimentation which has just been described, the study of cytotoxicity has been continued with two other samples of human leucocytes still by means of the viability test with Trypan blue.
C1 = 2.5 μg/ml of culture
C6 = 50 μg/ml of culture;
and for the carboxy-1-adamantane fraction to:
C3 = 4.5 μg/ml of culture
C6 = 22.5 μg/ml of culture.
Leucocytes only containing phytohemagglutinin and others containing phytohemagglutinin and 50 μl of methanol served as controls.
The percentage of dead cells was determined after different numbers of hours of incubation.

[6] = in vitro; settings: human, leucocytes, % of dead cells (Average of 2 determinations), no PHA
Method: (§3) The concentrations of colchicine and of the derivative were prepared through dilution of a concentrated solution in order to add a same volume of methanol to each culture.
The doses were the following:
C1 = 0.01 μg/ml of culture
C2 = 0.1 μg/ml of culture
C3 = 0.5 μg/ml of culture
C4 = 1.0 μg/ml of culture
C5 = 2.5 μg/ml of culture
C6 = 10.0 μg/ml of culture.
(§4) Samples of culture with or without addition of methanol served as references.

[7] = tested on: leucocytes from rats; settings: individual rat, 2 mg/kg oral, 2 mg/kg
Method: as §1
Two groups of rats served as references.
The first group consisted of rats which were given no substance. The second group consisted of rats which were given a same volume (7.5 ml/kg) of propylene glycol as that received by the treated animals.
as §2

[8] = tested on: phagocytosis by peritoneal macrophages of mice; assay type: cell-based; settings: for % phagocytosis with respect to controls (= 100%): 80 min
Method: The macrophages the proliferation of which in the animal has been previously stimulated in vivo by an intraperitoneal injection of proteose-peptone (Difco) are collected or gathered in a sterile manner by washing the peritoneal cavity. They are then suspended in a culture medium consisting of a basal Eagle medium (B-D Merieux) admixed with 20 % of serum of foetal calf (Flow Laboratories) and with 100 U/ml of penicillin and of 50 μg/ml of streptomicin. They are distributed at the rate of 5×10^6 cells per dish into Petri Falcon dishes of 35 mm in diameter wherein they will form a monocellular layer. They are cultivated at 37° C in a water-saturated atmosphere of air and of 5 % carbon dioxide CO2.
For the measurement of phagocytosis 48 hours cultures (experiments I, II, IV) or 72 hours cultures (experiments II, V) have been used. […] The volume of methanol added to each culture was equal to 10 μl except for experiment I (25 μl).

[9] = tested on: leucocytes from rats; assay type: in vivo, Sprague Dawley SIV 50 he-rats; settings: 2 mg/kg oral
Method: Blood (about 0.2 ml) obtained through puncture of the retro-orbital veinous sinus was collected under sterile conditions prior to the administration of the substances and 6 hours later.
Then one proceeded with carrying out a micro-culture of the leucocytes in the presence of phytohemagglutinin.

[10] = tested on: human leucocytes; settings: 0.01 μg/ml to 10 μg/ml; up to 30 hours; no PHA
Method: as §3
The doses were the following:
C1 = 0.01 μg/ml of culture
C2 = 0.1 μg/ml of culture
C3 = 0.5 μg/ml of culture
C4 = 1.0 μg/ml of culture
C5 = 2.5 μg/ml of culture
C6 = 10.0 μg/ml of culture.
as §4

[11] = 6 hours after administration, 2 mg/kg
[12] = 2 mg/kg, three subcutaneous injections, 6 h after urate
[13] = first experimentation, C1 = 2.5 μg/ml
[14] = first experimentation, C3 = 10 μg/ml
[15] = first experimentation, C5 = 30 μg/ml
[16] = first experimentation, C6 = 50 μg/ml

In the case of `COc1cc2c(c(OC)c1OC)-c1ccc(OC)c(=O)cc1[C@@H](NC(C)=O)CC2` [Colchicine, colchicine, reference compound], the Basophils ([1]; 6 hours after administration) is reported as 0, the Eosinophils ([1]; 6 hours after administration) is reported as 0 and the Lymphocytes [1, 11] is reported as 92 and 81 and 84. For the same molecule, the “Neutrophils with non-segmented nucleus” value [1, 11] was 1 and 3, the “Neutrophils with segmented nucleus” value [1, 11] was 6 and 16 and 17 and the Basophils ([1]; before administration) was 0. The Monocytes ([1]; before administration) was 2, the Lymphocytes ([1]; before administration, 2 mg/kg) was 94 and 83 and 87 and the “cytotoxic effect (in words)” value [2] was “no cytotoxic effect has been noticed”. For the same molecule, the “% of dead cells” value ([2]; individual rat, 2 mg/kg, 360 min) was 1% and 2% and 0%, the “number of leucocytes with increasing amounts (in words)” value ([3]; Table 9, 72 hours) was “decreases with increasing amounts of colchicine” and the “Count of leucocytes after 72 hours” value ([3]; Table 9, C1 = 2.5 μg/ml, control 412,500) was 457,000. The “Count of leucocytes after 72 hours” value ([3]; Table 9, C3 = 10 μg/ml, control 412,500) was 420,000, the “Count of leucocytes after 72 hours” value ([3]; Table 9, C5 = 30 μg/ml, control 412,500) was 397,000 and the “Count of leucocytes after 72 hours” value ([3]; Table 9, C6 = 50 μg/ml, control 412,500) was 270,000. For the same molecule, the “Count of leucocytes after 72 hours” value ([3]; Table 11, Culture I, C3 = 10 μg/ml) was 550,000, the “Count of leucocytes after 72 hours” value ([3]; Table 11, Culture I, C6 = 50 μg/ml) was 610,000 and the “Count of leucocytes after 72 hours” value ([3]; Table 11, Culture II, C1 = 2.5 μg/ml) was 240,000. For the same molecule, the “Count of leucocytes after 72 hours” value ([3]; Table 11, Culture II, C3 = 10 μg/ml) was 295,000, the “Count of leucocytes after 72 hours” value ([3]; Table 11, Culture II, C5 = 30 μg/ml) was 205,000 and the “Count of leucocytes after 72 hours” value ([3]; Table 11, Culture II, C6 = 50 μg/ml (two values given)) was 225,000 and 330,000. The “number of leucocytes in absence or presence of substance (in words)” value ([3]; Table 11, very approximative) was “remain substantially the same”, the “% of inhibition of edema” value [4, 12] was 48% and the “Difference in weight between left and right leg (Average ± standard deviation of mean term)” value [4, 12] was 0.152 ± 0.019 g. For the same molecule, the “protection against the oedema produced by crystals of urate (in words)” value ([4]; colchicine 2 mg/kg, derivative 6 mg/kg) was “significant protection”, the cytotoxicity at 4 h ([5]; Culture I, C3 = 10 μg/ml) was 6% and the cytotoxicity at 4 h ([5]; Culture I, C6 = 50 μg/ml) was 9%. For the same molecule, the cytotoxicity at 22 h ([5]; Culture I, C3 = 10 μg/ml) was 5%, the cytotoxicity at 22 h ([5]; Culture I, C6 = 50 μg/ml) was 7% and the cytotoxicity at 46 h ([5]; Culture I, C3 = 10 μg/ml) was 24%. It also gave a cytotoxicity at 46 h ([5]; Culture I, C6 = 50 μg/ml) of 19%, a cytotoxicity at 76 h ([5]; Culture I, C3 = 10 μg/ml) of 24% and a cytotoxicity at 76 h ([5]; Culture I, C6 = 50 μg/ml) of 23%. The cytotoxicity at 23 h ([5]; Culture II, C1 = 2.5 μg/ml) was 3%, the cytotoxicity at 23 h ([5]; Culture II, C3 = 10 μg/ml) was 4% and the cytotoxicity at 23 h ([5]; Culture II, C5 = 30 μg/ml) was 5%. For the same molecule, the cytotoxicity at 46 h ([5]; Culture II, C1 = 2.5 μg/ml) was 11%, the cytotoxicity at 46 h ([5]; Culture II, C3 = 10 μg/ml) was 8% and the cytotoxicity at 46 h ([5]; Culture II, C5 = 30 μg/ml) was 11%. It also gave a cytotoxicity at 72 h ([5]; Culture II, C1 = 2.5 μg/ml) of 13%, a cytotoxicity at 72 h ([5]; Culture II, C3 = 10 μg/ml) of 14% and a cytotoxicity at 72 h ([5]; Culture II, C5 = 30 μg/ml) of 18%. It also gave a cytotoxicity at 3 h [5, 13] of 1%, a cytotoxicity at 3 h [5, 14] of 1% and a cytotoxicity at 3 h [5, 15] of 0%. The cytotoxicity at 3 h [5, 16] was 0%, the cytotoxicity at 42 h [5, 13] was 3% and the cytotoxicity at 42 h [5, 14] was 2%. For the same molecule, the cytotoxicity at 42 h [5, 15] was 10%, the cytotoxicity at 42 h [5, 16] was 2% and the cytotoxicity at 68 h [5, 13] was 6%. For the same molecule, the cytotoxicity at 68 h [5, 14] was 9%, the cytotoxicity at 68 h [5, 15] was 9% and the cytotoxicity at 68 h [5, 16] was 21%. It also gave a cytotoxicity at 72 h [5, 13] of 7%, a cytotoxicity at 72 h [5, 15] of 18% and a cytotoxicity at 72 h [5, 16] of 24%. The cytotoxicity at 6 h ([6]; C1 = 0.01 μg/ml) was 1%, the cytotoxicity at 6 h ([6]; C2 = 0.1 μg/ml) was 0% and the cytotoxicity at 6 h ([6]; C3 = 0.5 μg/ml) was 2%. The cytotoxicity at 6 h ([6]; C4 = 1.0 μg/ml) was 1%, the cytotoxicity at 6 h ([6]; C5 = 2.5 μg/ml) was 1% and the cytotoxicity at 6 h ([6]; C6 = 10.0 μg/ml) was 1%. The cytotoxicity at 30 h ([6]; C1 = 0.01 μg/ml) was 55%, the cytotoxicity at 30 h ([6]; C2 = 0.1 μg/ml) was 68% and the cytotoxicity at 30 h ([6]; C3 = 0.5 μg/ml) was 54%. The cytotoxicity at 30 h ([6]; C4 = 1.0 μg/ml) was 59%, the cytotoxicity at 30 h ([6]; C5 = 2.5 μg/ml) was 60% and the cytotoxicity at 30 h ([6]; C6 = 10.0 μg/ml) was 46%. For the same molecule, the cytotoxicity at 48 h ([6]; C1 = 0.01 μg/ml) was 93%, the cytotoxicity at 48 h ([6]; C2 = 0.1 μg/ml) was 93% and the cytotoxicity at 48 h ([6]; C3 = 0.5 μg/ml) was 91%. For the same molecule, the cytotoxicity at 48 h ([6]; C4 = 1.0 μg/ml) was 95%, the cytotoxicity at 48 h ([6]; C5 = 2.5 μg/ml) was 92% and the cytotoxicity at 48 h ([6]; C6 = 10.0 μg/ml) was 92%. The “Leucocytes / mm^3” value ([7]; experiment 1, 6 hours after administration) was 9,500 / mm^3 and 7,900 / mm^3 and 7,750 / mm^3, the “Leucocytes / mm^3” value ([7]; experiment 1, before administration) was 16,600 / mm^3 and 10,450 / mm^3 and 10,000 / mm^3 and the “Leucocytes / mm^3” value ([7]; experiment 2, 6 hours after administration) was 7,950 / mm^3 and 6,950 / mm^3 and 8,900 / mm^3. For the same molecule, the “Leucocytes / mm^3” value ([7]; experiment 2, before administration) was 9,000 / mm^3 and 7,050 / mm^3 and 9,950 / mm^3, the “Leucocytes / mm^3” value ([7]; experiment 3, 6 hours after administration) was 9,750 / mm^3 and 13,750 / mm^3 and the “Leucocytes / mm^3” value ([7]; experiment 3, before administration) was 10,750 / mm^3 and 8,500 / mm^3 and 15,250 / mm^3. The inhibition of phagocytosis ([8]; 0.004 μg) was 15%, the “% phagocytosis with respect to controls (= 100%)” value (from here on “% phagocytosis”) ([8]; 0.004 μg, Experimentation III) was 87.6% and the “% phagocytosis” value ([8]; 0.004 μg, Experimentation IV) was 81.6%. The “% phagocytosis” value ([8]; 0.04 μg, Experimentation III) was 65%, the “% phagocytosis” value ([8]; 0.04 μg, Experimentation IV) was 78.9% and the “% phagocytosis” value ([8]; 0.04 μg, Experimentation V) was 79.5%. For the same molecule, the “% phagocytosis” value ([8]; 0.4 μg, Experimentation III) was 44.7%, the “% phagocytosis” value ([8]; 0.4 μg, Experimentation IV) was 54.3% and the “% phagocytosis” value ([8]; 0.4 μg, Experimentation V) was 54.4%. For the same molecule, the inhibition of phagocytosis ([8]; 4 μg) was 65%, the “% phagocytosis” value ([8]; 4 μg, Experimentation II) was 36.9% and the “% phagocytosis” value ([8]; 4 μg, Experimentation III) was 34.5%. For the same molecule, the “% phagocytosis” value ([8]; 4 μg, Experimentation IV) was 32.2%, the “% phagocytosis” value ([8]; 4 μg, Experimentation V) was 38.2% and the “% phagocytosis” value ([8]; 5 μg, Experimentation II) was 30.3%. For the same molecule, the “% phagocytosis” value ([8]; 10 μg, Experimentation II) was 33.7%, the “% phagocytosis” value ([8]; 12.5 μg, Experimentation I) was 36.5% and the “% phagocytosis” value ([8]; 20 μg, Experimentation II) was 33.4%. The “% phagocytosis” value ([8]; 30 μg, Experimentation II) was 36.2%, the inhibition of phagocytosis ([8]; 40 μg) was 67% and the “% phagocytosis” value ([8]; 40 μg, Experimentation II) was 32.0%. For the same molecule, the “% phagocytosis” value ([8]; 40 μg, Experimentation III) was 33.2%, the “% phagocytosis” value ([8]; 40 μg, Experimentation IV) was 33.8% and the “cpm / number of lymphocytes, mean” value ([9]; 6 hours after administration, group mean, factor and spread printed on following lines) was 2.72 × 10^-^2 cpm/number of lymphoc. For the same molecule, the Number of lymphocytes/culture ([9]; 6 hours after administration, individual rat, 2 mg/kg) was 148,200 lymphocytes/culture and 108,240 lymphocytes/culture, the “cpm / number of lymphocytes (immunity response)” value ([9]; 6 hours after administration, individual rat, factor × 10^-^2, 2 mg/kg) was 5.03 × 10^-^2 cpm/number of lymphoc and 0.40 × 10^-^2 cpm/number of lymphoc and the Number of lymphocytes/culture ([9]; before administration, individual rat, 2 mg/kg) was 103,960 lymphocytes/culture and 163,400 lymphocytes/culture and 156,400 lymphocytes/culture. For the same molecule, the “cytotoxicity (in words)” value [10] was “no cytotoxicity is detectable”.
